Legend:
[1] = target: T1, COX-1 (Homo sapiens, UniProt P23219); test: Human whole blood assay, COX-1 (clotting-induced TxB2 production); type: cell-based; parameters: platelets in whole blood contain a large amount of the COX-1 enzyme; from tissue; host or cells: fresh human whole blood (platelets), allowed to clot; conditions: clotting-induced TxB2, 1 hour at 37° C, read-out: COX-1 (IC50 μM) HWB
Description: Human whole blood provides a protein and cell-rich milieu appropriate for the study of biochemical efficacy of anti-inflammatory compounds such as selective COX-2 inhibitors. […] This is consistent with the observation that COX-2 inhibitors have no effect on PGE2 production in normal blood. These inhibitors are active only after incubation of human whole blood with LPS, which induces COX-2. This assay can be used to evaluate the inhibitory effect of selective COX-2 inhibitors on PGE2 production. As well, platelets in whole blood contain a large amount of the COX-1 enzyme. Immediately following blood clotting, platelets are activated through a thrombin-mediated mechanism. This reaction results in the production of thromboxane B2 (TxB2) via activation of COX-1. Thus, the effect of test compounds on TxB2 levels following blood clotting can be examined and used as an index for COX-1 activity. Therefore, the degree of selectivity by the test compound can be determined by measuring the levels of PGE2 after LPS induction (COX-2) and […] following blood clotting (COX-1) in the same assay.
B. COX-1 (Clotting-induced TxB2 production)
Fresh blood is collected into vacutainers containing no anticoagulants. […] The tubes are vortexed and incubated at 37° C. for 1 hour to allow blood to clot. At the end of incubation, serum is obtained by centrifugation (12,000×g for 5 min.). A 100 μL aliquot of serum is mixed with 400 μL of methanol for protein precipitation. The supernatant is obtained and is assayed for T×B2 using a enzyme immunoassay kit (Cayman, #519031) according to the manufacturer's instruction.

[2] = target: T1, COX-1; test: Assay of COX-1 activity from U937 cell microsomes; type: biochemical; parameters: Assay of COX-1 Activity from U937 cell microsomes; endogenous in cells; host or cells: U937 cells, 100,000×g microsomal pellet; conditions: PGE2, read-out: COX-1 (IC50 μM) U-937
Description: Assay of COX-1 Activity from U937 cell microsomes
U 937 cells are pelleted by centrifugation at 500×g for 5 min and washed once with phosphate-buffered saline and repelleted. […] The cell suspension is sonicated 4 times for 10 sec and is centrifuged at 10,000×g for 10 min at 4° C. The supernatant is centrifuged at 100,000×g for 1 hr at 4° C. The 100,000×g microsomal pellet is resuspended in 0.1 M Tris-HCl, pH 7.4, 10 mM EDTA to approximately 7 mg protein/ml and stored at -80° C.
Microsomal preparations are thawed immediately prior to use, subjected to a brief sonication, and then diluted to a protein concentration of 125 μg/ml in 0.1 M Tris-HCl buffer, pH 7.4 containing 10 mM EDTA, 0.5 mM phenol, 1 mM reduced glutathione and 1 μM hematin. Assays are performed in duplicate in a final volume of 250 pl. Initially, 5 µl of DMSO vehicle or drug in DMSO are added to 20 μl of 0.1 M Tris-HCl buffer, pH 7.4 containing 10 mM EDTA in wells of a 96-deepwell polypropylene titre plate. 200 μl of the microsomal preparation are then added and pre-incubated for 15 min at room temperature before addition of 25 μl of […] in 0.1 M Tris-HCl and 10 mM EDTA, pH 7.4. Samples are incubated for 40 min at room temperature and the reaction is stopped by the addition of 25 pl of 1 N HCl. Samples are neutralized with 25 μl of 1 N NaOH prior to quantitation of PGE2 content by radioimmunoassay (Dupont-NEN or Amersham assay kits). Cyclooxygenase activity is defined as the difference between PGE2 levels in samples incubated in the presence of arachidonic acid and ethanol vehicle.
(§1) In the assay, inhibition is determined by measuring the amount of prostaglandin E2 (PGE2) synthesized in the presence of arachidonic acid, cyclooxygenase-I or cyclooxygenase-2 and a putative inhibitor.

[3] = target: T2, COX-2 (Homo sapiens, UniProt P35354); test: Whole cell assay for COX-2 using CHO transfected cell line (CHO [hCOX-2]), PGE2; type: cell-based; parameters: expressed in transfected cells; host or cells: CHO (Chinese hamster ovary), stably transfected with pCDNAIII vector; CHO [hCOX-2]; conditions: CHO [hCOX-2] cells, 10 μM AA
T2 sequence (P35354 18-604): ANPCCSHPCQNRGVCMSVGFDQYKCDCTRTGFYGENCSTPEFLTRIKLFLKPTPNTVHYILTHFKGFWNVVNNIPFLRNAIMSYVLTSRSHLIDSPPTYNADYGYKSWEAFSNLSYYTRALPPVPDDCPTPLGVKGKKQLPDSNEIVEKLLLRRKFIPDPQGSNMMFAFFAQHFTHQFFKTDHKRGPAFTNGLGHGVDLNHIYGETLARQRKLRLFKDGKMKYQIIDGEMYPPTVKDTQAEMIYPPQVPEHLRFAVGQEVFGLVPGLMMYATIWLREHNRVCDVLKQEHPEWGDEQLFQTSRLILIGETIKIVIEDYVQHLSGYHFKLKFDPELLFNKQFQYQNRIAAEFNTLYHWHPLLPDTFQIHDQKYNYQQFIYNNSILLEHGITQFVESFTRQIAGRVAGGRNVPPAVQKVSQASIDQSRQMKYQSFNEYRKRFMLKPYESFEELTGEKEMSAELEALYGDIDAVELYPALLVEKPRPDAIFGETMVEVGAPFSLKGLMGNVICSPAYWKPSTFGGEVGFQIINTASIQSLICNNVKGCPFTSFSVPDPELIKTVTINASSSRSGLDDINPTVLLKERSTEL
Description: Chinese hamster ovary (CHO) cell lines which have been stably transfected with an eukaryotic expression vector pCDNAIII containing either the human COX-1 or COX-2 cDNA's are used for the assay. These cell lines are referred to as CHO [hCOX-1] and CHO [hCOX-2], respectively. […] Drugs to be tested are dissolved in DMSO to 66.7-fold the highest test drug concentration. […] Cells (0.3×10^6 cells in 200 p) are preincubated with 3 AIl of the test drug or DMSO vehicle for 15 min at 37° C. […] Cells are then challenged in the presence or absence of drug with the AA/HBSS solution to yield a final concentration of 0.5 μM AA in the CHOhCOX-1] assay and a final concentration of 10 μM AA in the CHO [hCOX-2] assay. […] The samples are centrifuged at 300×g at 4° C. for 10 min, and an aliquot of the clarified supernatant is appropriately diluted for the determination of PGE2 levels using an enzyme-liked immunoassay for PGE2 (Correlate PGE2 enzyme immunoassay kit, Assay Designs, Inc.). Cyclooxygenase activity in the absence of test compounds is determined as the difference in PGE2 levels of cells challenged with arachidonic acid versus the PGE2 levels in cells mock-challenged with ethanol vehicle. Inhibition of PGE2 synthesis by test compounds is calculated as a percentage of the activity in the presence of drug versus the activity in the positive control samples.
as §1

[4] = target: T2, COX-2; test: Human whole blood assay, COX-2 (LPS-induced PGE2 production); type: cell-based; parameters: incubation of human whole blood with LPS, which induces COX-2; from tissue; host or cells: fresh human whole blood (volunteers), incubated with LPS; conditions: LPS-induced PGE2, 24 hours at 37° C, read-out: COX-2 (IC50 μM) HWB
Text: As well, platelets in whole blood contain a large amount of the COX-1 enzyme. Immediately following blood clotting, platelets are activated through a thrombin-mediated mechanism. This reaction results in the production of thromboxane B2 (TxB2) via activation of COX-1. Thus, the effect of test compounds on TxB2 levels following blood clotting can be examined and used as an index for COX-1 activity. Therefore, the degree of selectivity by the test compound can be determined by measuring the levels of PGE2 after LPS induction (COX-2) and […] following blood clotting (COX-1) in the same assay.
A. COX-2 (LPS-induced PGE2 production)
Fresh blood is collected in heparinized tubes by venipuncture from both male and female volunteers. The subjects have no apparent inflammatory conditions and have not taken any NSAIDs for at least 7 days prior to blood collection. Plasma is immediately obtained from a 2mL blood aliquot to use as blank (basal levels of PGE2). The remaining blood is incubated with LPS (100 μg/ml final concentration, Sigma Chem, #L-2630 from E. coli; diluted in 0.1% BSA (Phosphate buffered saline) for 5 minutes at room temperature. Five hundred μL aliquots of blood are incubated with either 2μL of vehicle (DMSO) or 2 μL of a test compound at final concentrations varying from 10nM to 30 μM for 24 hours at 37° C. At the end of the incubation, the blood is centrifuged at 12,000×g for 5 minutes to obtain plasma. A 100 μL aliquot of plasma is mixed with 400 μL of methanol for protein precipitation. The supernatant is obtained and is assayed for PGE2 using a radioimmunoassay kit (Amersham, RPA#530) after conversion of PGE2 to its methyl oximate derivative according to the manufacturer's procedure. […]

T1 sequence (P23219 24-599): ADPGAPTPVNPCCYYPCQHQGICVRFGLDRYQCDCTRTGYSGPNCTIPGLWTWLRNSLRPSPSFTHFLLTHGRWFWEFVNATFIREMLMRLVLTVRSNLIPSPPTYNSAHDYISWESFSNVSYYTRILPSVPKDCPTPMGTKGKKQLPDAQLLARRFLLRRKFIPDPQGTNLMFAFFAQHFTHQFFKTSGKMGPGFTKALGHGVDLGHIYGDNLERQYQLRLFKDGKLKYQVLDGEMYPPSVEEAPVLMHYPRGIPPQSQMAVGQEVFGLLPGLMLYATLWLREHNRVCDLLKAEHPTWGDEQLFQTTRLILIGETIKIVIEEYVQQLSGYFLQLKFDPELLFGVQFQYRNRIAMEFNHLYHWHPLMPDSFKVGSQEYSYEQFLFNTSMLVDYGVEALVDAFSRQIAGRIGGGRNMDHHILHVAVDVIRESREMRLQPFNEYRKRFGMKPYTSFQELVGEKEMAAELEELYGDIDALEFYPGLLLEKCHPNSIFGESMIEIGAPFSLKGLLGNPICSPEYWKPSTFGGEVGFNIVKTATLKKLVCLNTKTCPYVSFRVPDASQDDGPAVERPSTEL

| Compound | IC50 [1] [µM] | IC50 [2] [µM] | IC50 [3] [µM] | IC50 [4] [µM] |
| --- | --- | --- | --- | --- |
| CC(C)Oc1c(-c2ccc(S(C)(=O)=O)cc2)cnn(Cc2ccccc2)c1=O [Example 21, 2-Benzyl-4-(2-propoxy)-5-(4-methylsulfonyl)phenyl-2H-pyridazin-3-one] | > 100 |  |  |  |
| CS(=O)(=O)c1ccc(-c2cnn(Cc3ccccc3)c(=O)c2Oc2ccc(F)cc2)cc1 [Example 22, 2-Benzyl-4-(4-fluorophenoxy)-5-(4-methylsulfonyl)phenyl-2H-pyridazin-3-one] | 9 | 0.3 to 1 |  |  |
| CS(=O)(=O)c1ccc(-c2cnn(CC3CCC3)c(=O)c2-c2ccc(F)cc2)cc1 [Example 32, 2-Cyclobutylmethyl-4-(4-fluorophenyl)-5-(4-methylsulfonyl)phenyl-2H-pyridazin-3-one] |  | ~10 | 0.029 | 0.56 |

From patent US6004960A, “Pyridazinones as inhibitors of cyclooxygenase-2” (Merck Frosst Canada, Inc., priority 1998, dated 1999)
